In test [1] the test system is ONE58 mesothelioma cell line. Kind of test: Anchorage-independent growth-death assay, ONE58. The following applies: single agent, 6 days; for IC50: read-out: gIC50; for Ymin-T0: negative = net cell kill. In kind it is cell-based, human. On the procedure:
(§1) Five human mesothelioma cell lines were used in these studies. Cells were grown in RPMI1640 media containing 10% FBS, 1% L-glutamine, 1% sodium pyruvate under standard cell culture conditions. The mesothelioma cell lines: Mero-14, Mero-82, NCI-H2052, NO36, and ONE58. The cellular response to Compound A or B was evaluated in an anchorage-independent cell growth assay that quantified the extent of cell growth inhibition and the net change in cell population. The assay was performed in black, clear bottom, untreated 384-well plates (Greiner #781096). It is important to use either non-tissue culture treated or Low Attachment plates to prevent cells from adhering to the plate during the assay. In brief, the assay was performed as described below. A 1% (weight/volume) stock of methylcellulose solution was prepared by dissolving 5 grams of methylcellulose (Sigma #M0512) in 495 mL of cell culture medium. […] Media can be substituted if the cells require different cell culture medium for growth. The dissolution often took a day with vigorous stirring at 4° C. maintaining sterile conditions. Cells were plated into a 384 well plate with assay conditions of 0.65% methylcellulose (final concentration) and 1000 cells per well in a final volume of 48 μL. […] The cells were mixed by inversion to distribute evenly, bubbles were dispersed and 48 μL was placed into the well with a positive displacement pipette. The plates were placed in a cell culture incubator containing 5% CO2 at 37° C. Serial dilution of compound in DMSO was done in a 384 well plate starting with μL of stock compound solution in the first column and 10 μL of DMSO in the other wells. Ten μL from the compound well was transferred into the DMSO containing well, mixed, and the serial dilution was continued with 10 μL transfers across the plate. Then, 4 μL of this DMSO diluted compound was added into wells of a new 384 well plate containing 105 μL of appropriate growth medium. This 'compound plate' was used to dose the assay plates containing cells in methylcellulose. For combination experiments, 20 μL of stock compound solution was a mixture of Compound A and Compound B at the designated ratio. For an example, for 1 to 1 ratio, 10 ul of Compound A at 40 mM and 10 ul of Compound B at 40 mM was mixed to generate ul of stock compound solution with both Compound A and Compound B at 20 mM concentration. […] Serial dilution and compound plate dilution was done as described above. Two μL from each well of the 'compound plate' was added to the individual wells of the 'cell plates' containing the 48 μL of cells in methylcellulose to initiate the assay. These assay plates were placed in the cell culture incubator for 6 days. One 'cell plate' was selected at random and was developed (see below) with Cell [NT] the time compound was added to the remaining cell plates and represents the time equal zero (T0) plate, i.e. it represents the number of cells at the time of compound addition. After 6 days the assay was stopped and the plates were developed by placing a black sticker on bottom of each plate to block light, 25 μL of CTG was added and then plates were incubate for 20 minutes at room temperature. The plates were scanned using a luminescence protocol on the EnVision (Perkin-Elmer). Results were expressed as a percent of the T0 value and plotted against the compound concentration. […] Positive values indicate net cell growth and negative values represent net cell kill. […] The results for the combination were analyzed by determination of Combination Index (CI) values using both mutually exclusive and mutually non-exclusive assumptions (12). The XC50 denotes that each parameter from the growth-death analysis was used, either gIC50 or gIC100 or […] values, to calculate the CI values. The A+B represents the XC50 value for the combination relative to the concentration of A and the B+A represents the XC50 value for the combination relative to the concentration of B in the combination.

The test system of test [2] is NO36 mesothelioma cell line. Kind of test: Anchorage-independent growth-death assay, NO36. In kind it is cell-based, human. The following applies: single agent, 6 days; for IC50: Homo sapiens, 144 h, read-out: gIC50; for Ymin-T0: negative = net cell kill. How it is done: (§2) Five human mesothelioma cell lines were used in these studies. Cells were grown in RPMI1640 media containing 10% FBS, 1% L-glutamine, 1% sodium pyruvate under standard cell culture conditions. The mesothelioma cell lines: Mero-14, Mero-82, NCI-H2052, NO36, and ONE58. The cellular response to Compound A or B was evaluated in an anchorage-independent cell growth assay that quantified the extent of cell growth inhibition and the net change in cell population. The assay was performed in black, clear bottom, untreated 384-well plates (Greiner #781096). It is important to use either non-tissue culture treated or Low Attachment plates to prevent cells from adhering to the plate during the assay. In brief, the assay was performed as described below. A 1% (weight/volume) stock of methylcellulose solution was prepared by dissolving 5 grams of methylcellulose (Sigma #M0512) in 495 mL of cell culture medium. […] Media can be substituted if the cells require different cell culture medium for growth. The dissolution often took a day with vigorous stirring at 4° C. maintaining sterile conditions. Cells were plated into a 384 well plate with assay conditions of 0.65% methylcellulose (final concentration) and 1000 cells per well in a final volume of 48 μL. […] The cells were mixed by inversion to distribute evenly, bubbles were dispersed and 48 μL was placed into the well with a positive displacement pipette. The plates were placed in a cell culture incubator containing 5% CO2 at 37° C. Serial dilution of compound in DMSO was done in a 384 well plate starting with μL of stock compound solution in the first column and 10 μL of DMSO in the other wells. Ten μL from the compound well was transferred into the DMSO containing well, mixed, and the serial dilution was continued with 10 μL transfers across the plate. Then, 4 μL of this DMSO diluted compound was added into wells of a new 384 well plate containing 105 μL of appropriate growth medium. This 'compound plate' was used to dose the assay plates containing cells in methylcellulose. For combination experiments, 20 μL of stock compound solution was a mixture of Compound A and Compound B at the designated ratio. For an example, for 1 to 1 ratio, 10 ul of Compound A at 40 mM and 10 ul of Compound B at 40 mM was mixed to generate ul of stock compound solution with both Compound A and Compound B at 20 mM concentration. […] Serial dilution and compound plate dilution was done as described above. Two μL from each well of the 'compound plate' was added to the individual wells of the 'cell plates' containing the 48 μL of cells in methylcellulose to initiate the assay. These assay plates were placed in the cell culture incubator for 6 days. One 'cell plate' was selected at random and was developed (see below) with Cell [NT] the time compound was added to the remaining cell plates and represents the time equal zero (T0) plate, i.e. it represents the number of cells at the time of compound addition. […] The plates were scanned using a luminescence protocol on the EnVision (Perkin-Elmer). Results were expressed as a percent of the T0 value and plotted against the compound concentration. […] The results for the combination were analyzed by determination of Combination Index (CI) values using both mutually exclusive and mutually non-exclusive assumptions (12). […]

Test [3] has as its system five human mesothelioma cell lines. Description: Anchorage-independent growth-death assay, summary over the cell line panel. In kind it is cell-based. The following applies: 6 days of compound exposure, FIG. 4. On the procedure: Five human mesothelioma cell lines were used in these studies. Cells were grown in RPMI1640 media containing 10% FBS, 1% L-glutamine, 1% sodium pyruvate under standard cell culture conditions. The mesothelioma cell lines: Mero-14, Mero-82, NCI-H2052, NO36, and ONE58.
The cellular response to Compound A or B was evaluated in an anchorage-independent cell growth assay that quantified the extent of cell growth inhibition and the net change in cell population. The assay was performed in black, clear bottom, untreated 384-well plates (Greiner #781096). It is important to use either non-tissue culture treated or Low Attachment plates to prevent cells from adhering to the plate during the assay. In brief, the assay was performed as described below.
A 1% (weight/volume) stock of methylcellulose solution was prepared by dissolving 5 grams of methylcellulose (Sigma #M0512) in 495 mL of cell culture medium. […]
After 6 days the assay was stopped and the plates were developed by placing a black sticker on bottom of each plate to block light, 25 μL of CTG was added and then plates were incubate for 20 minutes at room temperature. The plates were scanned using a luminescence protocol on the EnVision (Perkin-Elmer).
Results were expressed as a percent of the T0 value and plotted against the compound concentration. […]

Test [4] relates to Mero-14 mesothelioma cell line. Kind of test: Anchorage-independent growth-death assay, Mero-14. In kind it is cell-based, human. As to conditions: single agent, 6 days; for EC50 / IC50: Homo sapiens, 144 h; for EC50 / IC50 / gIC100: anchorage-independent; for EC50: read-out: dEC50; for IC50: read-out: gIC50; for Ymin-T0: negative = net cell kill. On the procedure:
as §1

Test [5] relates to NCI-H2052 mesothelioma cell line. Kind of test: Anchorage-independent growth-death assay, NCI-H2052. As to conditions: single agent, 6 days; for IC50: Homo sapiens, 144 h, read-out: gIC50; for Ymin-T0: negative = net cell kill. In kind it is cell-based, human. On the procedure:
as §2

Test [6] deals with Mero-82 mesothelioma cell line. Kind of test: Anchorage-independent growth-death assay, Mero-82. The following applies: single agent, 6 days; for EC50 / IC50: Homo sapiens, 144 h; for EC50 / IC50 / gIC100: anchorage-independent; for EC50: read-out: dEC50; for IC50: read-out: gIC50; for Ymin-T0: negative = net cell kill. In kind it is cell-based, human. How it is done:
as §1

[7] abbreviates: Homo sapiens, 144 h, anchorage-independent.

In the case of `CC(=O)Nc1cccc(-n2c(=O)n(C3CC3)c(=O)c3c(Nc4ccc(I)cc4F)n(C)c(=O)c(C)c32)c1` [Compound B, N-{3-[3-cyclopropyl-5-(2-fluoro-4-iodo-phenylamino)-6,8-dimethy-2,4,7-trioxo-3,4,6,7-tetrahydro-2H-pyrido[4,3-d]pyrimidin-1-yl]phenyl}acetamide], the EC50 in test [1] (Homo sapiens, 144 h, anchorage-independent, read-out: dEC50) worked out at 190 nM; in test [4], 71 nM; in test [6] it was 191 nM. Besides, the IC50 in test [1] (setting [7]) worked out at 8.8 nM; in test [2] (anchorage-independent), 134 nM; in test [4], 6.6 nM; in test [5] (anchorage-independent), 16 nM; in test [6], 10 nM. The gIC100 in test [1] (anchorage-independent) was 0.045 µM; in test [2] (anchorage-independent), 2345 nM; in test [4], 26 nM; in test [6], 67 nM. Further, the Ymin-T0 in test [1] was −92%; in test [2], −17%; in test [4], −78%; in test [5], 31%; in test [6], −89%. Also, in test [3], the “net change in cell population (Ymin-T0), in words” value is “cytotoxic in three of the five cell lines”.
On to `CONC(=O)c1ccccc1Nc1cc(Nc2cc(C)nn2C(C)C)ncc1Cl` [Compound A, 2-[(5-Chloro-2-{[3-methyl-1-(1-methylethyl)-1H-pyrazol-5-yl]amino}-4-pyridinyl)amino]-N-(methyloxy)benzamide], for which the IC50 in test [1] (setting [7]) is 23 nM; in test [2] (anchorage-independent) it was 17000 nM; in test [4], 56 nM; in test [5] (anchorage-independent), 408 nM; in test [6] it was 16 nM. Moreover, the gIC100 in test [1] (anchorage-independent) is 6.135 µM; in test [4], 3888 nM; in test [5] (anchorage-independent) it was 5.73 µM; in test [6], 983 nM. Further, the Ymin-T0 was −14% in test [1]; 134% in test [2]; −52% in test [4]; −30% in test [5]; −53% in test [6]. The “net change in cell population (Ymin-T0), in words” value in test [3] was “generally cytostatic”. For the same compound, the EC50 in test [4] was found to be 9580 nM; in test [6], 6900 nM.

The values above are taken from patent US20160263116A1, “COMBINATIONS” (GlaxoSmithKline LLC, priority 2012, published 2016).
